Assay results reported in ChEMBL document CHEMBL4823282, “Novel Broad-Spectrum Antimicrobial Peptide Derived from Anoplin and Its Activity on Bacterial Pneumonia in Mice” (J Med Chem, 2021).
≈ marks a conversion by molar mass, not a printed value. Where a SMILES comes first, the peptide text is derived from it. Bridges are numbered along the chain shown (N, C = ends). [ ]: non-standard residue; d: D form. The star is where a group is joined. Ileψ(thiazoline)Cys = CC[C@H](C)[C@H](N)C1=N[C@H](C(=O)*)CS1; dOrn = NCCC[C@@H](N)C(=O)O

What was measured:
[1] = Selectivity ratio of MHC10 for BALB/C mouse erythrocytes to MIC for fungi; type: toxicity
Erythrocyte = test: Hemolytic activity in BALB/C mouse erythrocytes incubated for 1 hr by absorbance method; type: ADME, cell-based
[2] = Cytotoxicity against human glomerular mesangial cells incubated for 12 hrs by MTT assay; type: cell-based; details: Glomerular mesangial cell
Escherichia coli = test: Antibacterial activity against Escherichia coli ATCC 25922 incubated for 18 hrs by CLSI based broth dilution method; type: functional
Bacteria [3] = test: Antibacterial activity against bacteria incubated for 18 hrs by CLSI based broth dilution method; type: functional
Bacillus subtilis = test: Antibacterial activity against Bacillus subtilis ATCC 23857 incubated for 18 hrs by CLSI based broth dilution method; type: functional
Staphylococcus aureus = test: Antibacterial activity against Staphylococcus aureus ATCC 25923 incubated for 18 hrs by CLSI based broth dilution method; type: functional
[4] = Selectivity ratio of MHC10 for BALB/C mouse erythrocytes to MIC for bacteria; type: toxicity
Acinetobacter baumannii = test: Antibacterial activity against Acinetobacter baumannii ATCC 19606 incubated for 18 hrs by CLSI based broth dilution method; type: functional; details: ATCC 19606 = CIP 70.34 = JCM 6841
Bacteria [5] = test: Antibacterial activity against Gram-positive bacteria incubated for 18 hrs by CLSI based broth dilution method; type: functional
Klebsiella pneumoniae = test: Antibacterial activity against Klebsiella pneumoniae ATCC 700603 incubated for 18 hrs by CLSI based broth dilution method; type: functional
[6] = Selectivity ratio of MHC10 for BALB/C mouse erythrocytes to MIC for gram-negative bacteria; type: toxicity
Fungi = test: Antibacterial activity against fungi incubated for 18 hrs by CLSI based broth dilution method; type: functional
[7] = Selectivity ratio of MHC10 for BALB/C mouse erythrocytes to MIC for gram positive bacteria; type: toxicity
Bacteria [8] = test: Antibacterial activity against Gram-negative bacteria incubated for 18 hrs by CLSI based broth dilution method; type: functional
Enterococcus faecalis = test: Antibacterial activity against Enterococcus faecalis ATCC 29212 incubated for 18 hrs by CLSI based broth dilution method; type: functional
[9] = tested on: Staphylococcus epidermidis; test: Antibacterial activity against Staphylococcus epidermidis ATCC 12228 incubated for 18 hrs by CLSI based broth dilution method; type: functional
Pseudomonas aeruginosa = test: Antibacterial activity against Pseudomonas aeruginosa ATCC 27853 incubated for 18 hrs by CLSI based broth dilution method; type: functional

| SMILES | selectivity ratio [1] | MHC10 (Erythrocyte) | IC50 [2] [µM] | MIC (Escherichia coli) [µM] | MIC (Bacteria [3]) [µM] | MIC (Bacillus subtilis) [µM] | MIC (Staphylococcus aureus) [µM] | selectivity ratio [4] | MIC (Acinetobacter baumannii) [µM] | MIC (Bacteria [5]) [µM] | MIC (Klebsiella pneumoniae) [µM] | selectivity ratio [6] | MIC (Fungi) [µM] | selectivity ratio at 18 h [7] | MIC (Bacteria [8]) [µM] | MIC (Enterococcus faecalis) [µM] | MIC [9] [µM] | MIC (Pseudomonas aeruginosa) [µM] |
| --- | --- | --- | --- | --- | --- | --- | --- | --- | --- | --- | --- | --- | --- | --- | --- | --- | --- | --- |
| C[C@H](NC(=O)[C@H](C)NC(=O)[C@@H](NC(=O)[C@H](CCCCN)NC(=O)[C@H](C)NC(=O)[C@H](CCCNC(=N)N)NC(=O)[C@H](CCCCN)NC(=O)[C@H](C)NC(=O)[C@H](C)NC(=O)CN)[C@@H](C)O)C(N)=O (H-GAAKRAKTAA-NH2) | 1 | >= 512 uM | ≥ 512 | ≥ 512 | ≥ 512 | ≥ 512 | ≥ 512 | 1 | ≥ 512 | ≥ 512 | ≥ 512 | 1 | ≥ 512 | 1 | ≥ 512 | ≥ 512 | ≥ 512 | ≥ 512 |
| CC(C)C[C@H](NC(=O)[C@H](C)NC(=O)[C@@H](NC(=O)[C@H](CCCCN)NC(=O)[C@H](C)NC(=O)[C@H](CCCNC(=N)N)NC(=O)[C@H](CCCCN)NC(=O)[C@H](C)NC(=O)[C@H](C)NC(=O)CN)[C@@H](C)O)C(N)=O (H-GAAKRAKTAL-NH2) | 1 | >= 512 uM | ≥ 512 | ≥ 512 | ≥ 512 | ≥ 512 | ≥ 512 | 1 | ≥ 512 | ≥ 512 | ≥ 512 | 1 | ≥ 512 | 1 | ≥ 512 | ≥ 512 | ≥ 512 | ≥ 512 |
| CC(C)C[C@H](NC(=O)[C@H](C)NC(=O)[C@@H](NC(=O)[C@H](CCCCN)NC(=O)[C@H](C)NC(=O)[C@H](CCCNC(=N)N)NC(=O)[C@H](CCCCN)NC(=O)[C@H](CC(C)C)NC(=O)[C@H](C)NC(=O)CN)[C@@H](C)O)C(N)=O (H-GALKRAKTAL-NH2) | 1 | >= 512 uM | ≥ 512 | ≥ 512 | ≥ 512 | ≥ 512 | ≥ 512 | 1 | ≥ 512 | ≥ 512 | ≥ 512 | 1 | ≥ 512 | 1 | ≥ 512 | ≥ 512 | ≥ 512 | ≥ 512 |
| CC(C)C[C@H](NC(=O)[C@H](Cc1ccccc1)NC(=O)CN)C(=O)N[C@@H](CCCCN)C(=O)N[C@@H](CCCNC(=N)N)C(=O)N[C@@H](Cc1ccccc1)C(=O)N[C@@H](CCCCN)C(=O)N[C@H](C(=O)N[C@@H](CC(C)C)C(=O)N[C@@H](Cc1ccccc1)C(N)=O)[C@@H](C)O (H-GFLKRFKTLF-NH2) | 7.78 | 384 µM | 209 | 64 (≈ 80.4 µg/mL) | 49.4 (≈ 62 µg/mL) | 64 (≈ 80.4 µg/mL) | 64 (≈ 80.4 µg/mL) | 7.78 | 128 (≈ 161 µg/mL) | 45.3 (≈ 56.9 µg/mL) | 128 (≈ 161 µg/mL) | 7.14 | 49.4 (≈ 62 µg/mL) | 8.48 | 53.8 (≈ 67.6 µg/mL) | 128 (≈ 161 µg/mL) | 8 (≈ 10 µg/mL) | 64 (≈ 80.4 µg/mL) |
| CC[C@H](C)[C@H](NC(=O)CN)C(=O)N[C@@H](CCCNC(=N)N)C(=O)N[C@@H](Cc1c[nH]c2ccccc12)C(=O)N[C@@H](CCCCN)C(=O)N[C@@H](Cc1ccccc1)C(=O)N[C@@H](Cc1c[nH]c2ccccc12)C(=O)N[C@@H](CCCCN)C(=O)N[C@@H](Cc1ccccc1)C(=O)N[C@H](C(N)=O)[C@@H](C)O (H-GIRWKFWKFT-NH2) | 8.72 | >= 512 uM | ≥ 512 | 32 (≈ 43.8 µg/mL) | 58.7 (≈ 80.3 µg/mL) | 64 (≈ 87.5 µg/mL) | 32 (≈ 43.8 µg/mL) | 8.72 | 128 (≈ 175 µg/mL) | 76.1 (≈ 104 µg/mL) | 64 (≈ 87.5 µg/mL) | 11.3 | 58.7 (≈ 80.3 µg/mL) | 6.73 | 45.3 (≈ 62 µg/mL) | 128 (≈ 175 µg/mL) | 128 (≈ 175 µg/mL) | 32 (≈ 43.8 µg/mL) |
| CC(C)C[C@H](NC(=O)[C@H](CC(C)C)NC(=O)[C@@H](NC(=O)[C@H](CCCCN)NC(=O)[C@H](C)NC(=O)[C@H](CCCNC(=N)N)NC(=O)[C@H](CCCCN)NC(=O)[C@H](C)NC(=O)[C@H](CC(C)C)NC(=O)CN)[C@@H](C)O)C(N)=O (H-GLAKRAKTLL-NH2) | 1 | >= 512 uM | ≥ 512 | ≥ 512 | ≥ 512 | ≥ 512 | ≥ 512 | 1 | ≥ 512 | ≥ 512 | ≥ 512 | 1 | ≥ 512 | 1 | ≥ 512 | ≥ 512 | ≥ 512 | ≥ 512 |
| CC(C)C[C@H](NC(=O)[C@H](CC(C)C)NC(=O)[C@@H](NC(=O)[C@H](CCCCN)NC(=O)[C@H](Cc1ccccc1)NC(=O)[C@H](CCCNC(=N)N)NC(=O)[C@H](CCCCN)NC(=O)[C@H](CC(C)C)NC(=O)[C@H](CC(C)C)NC(=O)CN)[C@@H](C)O)C(N)=O (H-GLLKRFKTLL-NH2) | 7.34 | >= 512 uM | ≥ 512 | 64 (≈ 76 µg/mL) | 69.8 (≈ 82.9 µg/mL) | 32 (≈ 38 µg/mL) | 128 (≈ 152 µg/mL) | 7.34 | 256 (≈ 304 µg/mL) | 64 (≈ 76 µg/mL) | 128 (≈ 152 µg/mL) | 6.73 | 69.8 (≈ 82.9 µg/mL) | 8 | 76.1 (≈ 90.4 µg/mL) | 256 (≈ 304 µg/mL) | 16 (≈ 19 µg/mL) | 64 (≈ 76 µg/mL) |
| CC(C)C[C@H](NC(=O)CN)C(=O)N[C@@H](CC(C)C)C(=O)N[C@@H](CCCCN)C(=O)N[C@@H](CCCNC(=N)N)C(=O)N[C@@H](CC(C)C)C(=O)N[C@@H](CCCCN)C(=O)N[C@H](C(=O)N[C@@H](CC(C)C)C(=O)N[C@@H](C)C(N)=O)[C@@H](C)O (H-GLLKRLKTLA-NH2) | 3.08 | >= 512 uM | ≥ 512 | 256 (≈ 285 µg/mL) | 166 (≈ 185 µg/mL) | 32 (≈ 35.6 µg/mL) | 256 (≈ 285 µg/mL) | 3.08 | ≥ 512 | 128 (≈ 142 µg/mL) | 256 (≈ 285 µg/mL) | 2.38 | 166 (≈ 185 µg/mL) | 4 | 215 (≈ 239 µg/mL) | ≥ 512 | 64 (≈ 71.1 µg/mL) | 256 (≈ 285 µg/mL) |
| CC[C@H](C)[C@H](N)C1=N[C@H](C(=O)N[C@@H](CC(C)C)C(=O)N[C@H](CCC(=O)O)C(=O)N[C@H](C(=O)N[C@H]2CCCCNC(=O)[C@H](CC(N)=O)NC(=O)[C@@H](CC(=O)O)NC(=O)[C@H](Cc3cnc[nH]3)NC(=O)[C@@H](Cc3ccccc3)NC(=O)[C@H]([C@@H](C)CC)NC(=O)[C@@H](CCCN)NC2=O)[C@@H](C)CC)CS1 [BACITRACIN] ({Ileψ(thiazoline)Cys}-L[dE]IK[dOrn]I[dF]H[dD]N; lactam 4-C) | – | – | – | ≥ 512 | – | ≥ 512 | 16 (≈ 22.8 µg/mL) | – | ≥ 128 | – | ≥ 512 | – | – | – | – | 32 (≈ 45.5 µg/mL) | 8 (≈ 11.4 µg/mL) | ≥ 512 |
| CO/N=C(\C(=O)N[C@@H]1C(=O)N2C(C(=O)O)=C(COC(C)=O)CS[C@H]12)c1csc(N)n1 [CEFOTAXIME] | – | – | – | < 1 | – | < 1 | 2 (≈ 0.911 µg/mL) | – | 32 (≈ 14.6 µg/mL) | – | 8 (≈ 3.64 µg/mL) | – | – | – | – | ≥ 512 | 2 (≈ 0.911 µg/mL) | < 1 |
| C[C@@H](O)[C@H]1C(=O)N2C(C(=O)O)=C(SCCNC=N)C[C@H]12 [IMIPENEM ANHYDROUS] | – | – | – | < 1 | – | < 1 | < 1 | – | < 1 | – | < 1 | – | – | – | – | < 1 | < 1 | < 1 |
| NC[C@H]1O[C@H](O[C@H]2[C@H](O)[C@@H](O[C@H]3O[C@H](CO)[C@@H](O)[C@H](N)[C@H]3O)[C@H](N)C[C@@H]2N)[C@H](O)[C@@H](O)[C@@H]1O [KANAMYCIN] | – | – | – | 8 (≈ 3.88 µg/mL) | – | < 1 | < 1 | – | 4 (≈ 1.94 µg/mL) | – | 32 (≈ 15.5 µg/mL) | – | – | – | – | 8 (≈ 3.88 µg/mL) | < 1 | 8 (≈ 3.88 µg/mL) |
| C[C@@H](O)[C@H]1C(=O)N2C(C(=O)O)=C(S[C@@H]3CN[C@H](C(=O)N(C)C)C3)[C@H](C)[C@H]12 [MEROPENEM] | – | – | – | < 1 | – | < 1 | < 1 | – | < 1 | – | < 1 | – | – | – | – | 4 (≈ 1.53 µg/mL) | < 1 | < 1 |
| CC1(C)S[C@@H]2[C@H](NC(=O)Cc3ccccc3)C(=O)N2[C@H]1C(=O)O [PENICILLIN G] | – | – | – | 64 (≈ 21.4 µg/mL) | – | < 1 | < 1 | – | 128 (≈ 42.8 µg/mL) | – | ≥ 512 | – | – | – | – | 4 (≈ 1.34 µg/mL) | 16 (≈ 5.35 µg/mL) | 64 (≈ 21.4 µg/mL) |
| CN[C@@H]1[C@H](O[C@H]2[C@H](O[C@H]3[C@H](O)[C@@H](O)[C@H](N=C(N)N)[C@@H](O)[C@@H]3N=C(N)N)O[C@@H](C)[C@]2(O)C=O)O[C@@H](CO)[C@H](O)[C@H]1O [STREPTOMYCIN] | – | – | – | 4 (≈ 2.33 µg/mL) | – | 2 (≈ 1.16 µg/mL) | < 1 | – | 2 (≈ 1.16 µg/mL) | – | < 1 | – | – | – | – | 16 (≈ 9.31 µg/mL) | 32 (≈ 18.6 µg/mL) | 4 (≈ 2.33 µg/mL) |
